Values belong to the compound of their own block, whether it stands above or below them.
Experiments:
NDUTT3 = biological target: T1, NDUTT3 (Tetrahymena thermophila, UniProt I7LUQ4); assay: cryo-EM structure; format: binding; conditions: co-purified native ligand
T1 construct: gene TTHERM_00268000; native matrix-arm subunit of complex I within supercomplex, digitonin
T1 sequence (I7LUQ4 1-311): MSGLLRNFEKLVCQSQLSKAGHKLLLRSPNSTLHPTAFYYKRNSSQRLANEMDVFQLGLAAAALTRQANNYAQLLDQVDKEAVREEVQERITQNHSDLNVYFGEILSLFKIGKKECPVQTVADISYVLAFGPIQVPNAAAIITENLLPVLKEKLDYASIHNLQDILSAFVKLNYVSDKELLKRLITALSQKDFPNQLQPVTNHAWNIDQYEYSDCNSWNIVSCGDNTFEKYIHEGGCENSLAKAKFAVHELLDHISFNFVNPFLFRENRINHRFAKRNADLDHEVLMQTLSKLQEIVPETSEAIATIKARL

NDUFA9 = biological target: T2, NDUFA9 (Tetrahymena thermophila, UniProt I7MLH2); assay: cryo-EM structure; format: binding; conditions: co-purified; close to the CI Q-tunnel
T2 construct: gene TTHERM_00557760; native subunit of complex I within supercomplex, digitonin
T2 sequence (I7MLH2 27-362): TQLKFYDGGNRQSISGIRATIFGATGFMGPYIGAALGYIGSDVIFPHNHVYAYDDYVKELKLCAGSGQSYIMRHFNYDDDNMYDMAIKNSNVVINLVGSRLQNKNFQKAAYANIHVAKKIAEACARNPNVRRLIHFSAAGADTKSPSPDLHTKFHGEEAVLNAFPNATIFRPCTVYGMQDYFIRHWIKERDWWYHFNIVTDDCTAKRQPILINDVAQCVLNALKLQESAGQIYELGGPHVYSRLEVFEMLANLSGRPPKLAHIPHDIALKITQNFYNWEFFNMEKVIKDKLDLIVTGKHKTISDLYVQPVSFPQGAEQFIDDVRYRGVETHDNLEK

COB (CIII2) = biological target: T3, COB (CIII2) (Tetrahymena thermophila, UniProt Q950Z1); assay: cryo-EM structure; format: binding; conditions: co-purified; Qi site near haem bH (or semiquinone); second site between the two haem bL
T3 construct: native; mitochondria-encoded subunit in complex III dimer within supercomplex, digitonin
T3 sequence (Q950Z1 1-426): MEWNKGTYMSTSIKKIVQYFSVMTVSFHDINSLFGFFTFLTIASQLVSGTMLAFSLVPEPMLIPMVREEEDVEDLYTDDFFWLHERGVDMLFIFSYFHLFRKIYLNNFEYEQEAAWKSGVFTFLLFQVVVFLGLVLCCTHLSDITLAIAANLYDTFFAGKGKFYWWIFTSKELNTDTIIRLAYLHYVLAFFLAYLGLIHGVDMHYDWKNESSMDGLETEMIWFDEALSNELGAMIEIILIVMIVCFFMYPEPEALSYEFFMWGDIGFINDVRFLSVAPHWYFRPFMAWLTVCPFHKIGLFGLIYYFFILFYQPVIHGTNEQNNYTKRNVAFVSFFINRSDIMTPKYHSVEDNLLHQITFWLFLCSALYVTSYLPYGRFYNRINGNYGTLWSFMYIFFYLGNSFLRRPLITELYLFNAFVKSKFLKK

SDHA (CII) = biological target: T4, SDHA (CII) (Tetrahymena thermophila, UniProt Q23DI3); assay: cryo-EM structure; format: binding; conditions: covalent
T4 construct: gene TTHERM_00047080; native complex II in I-II-III2-IV2 supercomplex from mitochondria, digitonin; with Succinate dehydrogenase [ubiquinone] iron-sulfur subunit, mitochondrial; Succinate dehydrogenase membrane anchor subunit SDHC; Succinate dehydrogenase membrane anchor subunit SDHD (mitochondria-encoded)

[1] = biological target: complex III monomer (cytochrome bc1) of Tetrahymena thermophila (Tetrahymena thermophila); assay: cryo-EM structure; single-particle cryo-EM of the native supercomplex co-purified from T. thermophila mitochondria; buffer D (25 mM HEPES-KOH pH 7.5, 25 mM KCl, 5 mM MgCl2, 0.1% w/v digitonin); 2.9 Å overall, masked refinements 2.6-3.0 Å
[2] = biological target: complex IV monomer (cytochrome c oxidase) of Tetrahymena thermophila (Tetrahymena thermophila) (UniProt Q950Y7); assay: as above

T4 sequence (Q23DI3 1-636): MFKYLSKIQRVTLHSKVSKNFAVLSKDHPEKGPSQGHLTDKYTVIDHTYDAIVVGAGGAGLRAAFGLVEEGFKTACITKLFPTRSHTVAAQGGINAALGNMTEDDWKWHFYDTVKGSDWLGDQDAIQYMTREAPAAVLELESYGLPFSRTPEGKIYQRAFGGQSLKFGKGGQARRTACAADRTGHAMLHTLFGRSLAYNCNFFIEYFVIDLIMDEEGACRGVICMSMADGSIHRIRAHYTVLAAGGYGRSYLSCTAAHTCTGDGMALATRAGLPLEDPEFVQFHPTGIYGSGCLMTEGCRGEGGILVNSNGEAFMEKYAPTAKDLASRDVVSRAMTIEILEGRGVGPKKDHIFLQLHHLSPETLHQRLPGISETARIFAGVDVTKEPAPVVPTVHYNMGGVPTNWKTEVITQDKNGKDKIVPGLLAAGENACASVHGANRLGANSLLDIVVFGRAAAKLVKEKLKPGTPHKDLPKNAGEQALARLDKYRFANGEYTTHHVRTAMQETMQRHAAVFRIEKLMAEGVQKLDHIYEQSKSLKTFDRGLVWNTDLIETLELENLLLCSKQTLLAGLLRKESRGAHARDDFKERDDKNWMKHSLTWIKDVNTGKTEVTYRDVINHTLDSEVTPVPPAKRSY

Compound: Nc1ncnc2c1ncn2[C@@H]1O[C@H](COP(=O)(O)OP(=O)(O)O)[C@@H](O)[C@H]1O [ADP]
cryo-EM structure (NDUTT3): subunits NDUTT1 with UDP and NDUTT3 with ADP

Compound: NC(=O)C1=CN([C@@H]2O[C@H](COP(=O)(O)OP(=O)(O)OC[C@H]3O[C@@H](n4cnc5c(N)ncnc54)[C@H](OP(=O)(O)O)[C@@H]3O)[C@@H](O)[C@H]2O)C=CC1 [NADPH]
cryo-EM structure (NDUFA9): NDUFA9 contains a bound NADPH molecule close to the CI Q-tunnel

Compound: COC1=C(OC)C(=O)C(C/C=C(\C)CC/C=C(\C)CC/C=C(\C)CC/C=C(\C)CC/C=C(\C)CC/C=C(\C)CC/C=C(\C)CCC=C(C)C)=C(C)C1=O [UQ, ubiquinone]
cryo-EM structure (COB (CIII2)): density for a bound (semi)-UQ was observed in the Qi site

Compound: Cc1cc2nc3c(=O)[nH]c(=O)nc-3n(C[C@H](O)[C@H](O)[C@H](O)COP(=O)(O)OP(=O)(O)OC[C@H]3O[C@@H](n4cnc5c(N)ncnc54)[C@H](O)[C@@H]3O)c2cc1C [flavin adenine dinucleotide]
cryo-EM structure (SDHA (CII)): SDHA and SDHB forms a conserved head region, containing both the covalently bound FAD

stoichiometry N [1]: 2
Compound: complex III monomer (cytochrome bc1) of Tetrahymena thermophila

stoichiometry N [2]: 2
Compound: complex IV monomer (cytochrome c oxidase) of Tetrahymena thermophila (from UniProt Q950Y7 1-453; Q950Y6 1-594)
